Target: T1, AMPH-1 (Amphiphysin 1) (Caenorhabditis elegans, UniProt Q21004)
T1 sequence (Q21004 1-461): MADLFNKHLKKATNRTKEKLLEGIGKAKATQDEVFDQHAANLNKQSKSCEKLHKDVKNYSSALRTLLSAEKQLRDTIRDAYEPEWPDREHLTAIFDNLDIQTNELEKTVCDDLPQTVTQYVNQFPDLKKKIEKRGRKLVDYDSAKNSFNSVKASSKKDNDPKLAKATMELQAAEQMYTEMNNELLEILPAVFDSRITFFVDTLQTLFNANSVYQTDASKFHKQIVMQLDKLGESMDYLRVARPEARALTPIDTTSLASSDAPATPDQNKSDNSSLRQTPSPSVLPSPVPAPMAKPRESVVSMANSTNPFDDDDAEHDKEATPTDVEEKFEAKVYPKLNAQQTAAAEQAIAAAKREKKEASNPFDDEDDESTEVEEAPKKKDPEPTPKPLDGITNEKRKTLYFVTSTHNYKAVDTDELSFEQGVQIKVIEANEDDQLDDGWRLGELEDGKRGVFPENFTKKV
Experiment: membrane fission of PS liposomes by burst analysis spectroscopy
Type: biochemical
Details: 0.5 mM GDP, 1 μM AMPH-1, 30 min; stimulates fission

For `Nc1nc2c(ncn2[C@@H]2O[C@H](COP(=O)(O)OP(=O)(O)O)[C@@H](O)[C@H]2O)c(=O)[nH]1` [GDP], the “membrane fission of PS liposomes by burst analysis spectroscopy” value was “GDP stimulates fission to almost the same extent as seen in the presence of GTP”.

— PMC9825645 (Traffic (Copenhagen, Denmark), 2022)
